Key:
[1] = Tissue distribution (pharmacokinetic study); assay type: in vivo, mouse; conditions: ICR mice, single oral 20 mg/kg
Procedure: Male ICR mice (6–8 weeks old, 18–22 g, Shanghai Lingchang BioTech Co., Ltd., China) were used in the pharmacokinetic study. The mice were administered with a single dose of cyclopeptide DC646 in 5% DMSO and 95% hydroxypropyl methylcellulose solution (0.5% hydroxypropyl methylcellulose in deionized water in weight ratio) (volume ratio) by oral gavage (20 mg/kg). Before the test, the mice were fasted for 12 h and were fed regularly 2 h after administration. Subsequently, 50 μL of blood was collected from the portal vein at 1, 4, 8, and 24 h in an EDTA-K2 nebulization tube. Samples were centrifuged at 12,000 rpm for 2 min to separate the plasma, which was then stored at −20°C to determine the drug concentration in the blood. After sacrifice, the livers and intestines were collected, washed with ice-cold saline, and stored at −20°C before compound measurement.

[2] = biological target: T1, human FXR alpha (hFXRα)-LBD / SRC2-3 peptide (Homo sapiens, UniProt Q96RI1); test: AlphaScreen assay, recruitment of coactivator peptide SRC2-3 to His-hFXRα-LBD; assay type: biochemical
T1 construct: 100 nmol/L 6*His-hFXRα-LBD and 100 nmol/L biotinylated co-factor peptide
T1 sequence (Q96RI1 262-486 limits assumed): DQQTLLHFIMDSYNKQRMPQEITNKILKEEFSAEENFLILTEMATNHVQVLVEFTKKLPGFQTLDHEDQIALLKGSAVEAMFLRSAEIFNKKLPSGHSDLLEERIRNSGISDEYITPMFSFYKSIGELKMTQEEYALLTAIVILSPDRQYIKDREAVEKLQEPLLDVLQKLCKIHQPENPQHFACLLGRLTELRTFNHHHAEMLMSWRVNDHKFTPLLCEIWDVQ
Procedure: An AlphaScreen technology-based assay was performed according to the manufacturer’s instructions with a minor revision. Briefly, the experiment was conducted with compounds at the indicated concentrations, 100 nmol/L 6*His-hFXRα-LBD and 100 nmol/L biotinylated co-factor peptide in the buffer containing 50 mmol/L MOPS, 50 μmol/L CHAPS, 50 mmol/L NaF, and 0.1 mg/mL BSA, pH 7.4. The mixture was incubated with 50 μg/mL nickel acceptor beads and 50 μg/mL streptavidin donor beads in a 384-well plate under green light in the dark at room temperature, before conducting fluorescence measurement with excitation at 680 nm and emission at 550 nm on an Envision microplate analyzer (PE 2102-8340, PerkinElmer Life Sciences).

PPARγ = biological target: T2, PPARγ (Homo sapiens, UniProt P37231); test: PPARγ cell-based reporter assay; conditions: 10 μmol/L; inhibition of agonist-induced receptor activation
T2 sequence (P37231 1-505): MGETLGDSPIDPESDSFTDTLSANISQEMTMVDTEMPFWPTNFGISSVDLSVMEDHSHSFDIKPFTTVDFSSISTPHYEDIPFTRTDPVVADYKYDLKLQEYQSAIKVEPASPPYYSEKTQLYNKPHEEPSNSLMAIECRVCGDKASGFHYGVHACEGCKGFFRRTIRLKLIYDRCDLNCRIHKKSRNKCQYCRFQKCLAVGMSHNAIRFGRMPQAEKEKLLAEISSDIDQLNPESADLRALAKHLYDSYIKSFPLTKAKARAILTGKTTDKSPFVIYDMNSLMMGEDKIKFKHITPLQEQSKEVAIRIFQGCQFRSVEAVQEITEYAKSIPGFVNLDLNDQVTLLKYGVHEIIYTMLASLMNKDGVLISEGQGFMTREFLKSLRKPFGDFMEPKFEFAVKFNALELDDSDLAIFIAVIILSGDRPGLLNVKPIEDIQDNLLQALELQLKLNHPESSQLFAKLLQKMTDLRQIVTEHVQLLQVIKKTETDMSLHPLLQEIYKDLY
Excerpt: Inhibition% means inhibition percentage of agonist-induced receptor activation.

MCD diet-induced MASH = test: MCD diet short-term MASH model in WT and Fxr-null mice; assay type: in vivo, mouse; conditions: oral 10 mg/kg, 2 weeks
Procedure: For the short-term MASH model, 8- to 10-week-old male C57BL/6 J or Fxr-null mice were fed with an MCD diet, combined with oral administration of vehicle or DC646 (10 mg/kg) for 2 weeks. The serum, liver, and intestine were collected 2 h after the final dosing.
The intestine and liver were frozen in liquid nitrogen and stored at −80°C. RNA was extracted, and complementary DNA was synthesized from 1 μg total RNA. RT-qPCR was performed on a Bio-Rad CFX384 Touch detection system (Bio-Rad). The primer sequences for RT-qPCR are shown in Supplementary Table S5. RNA levels were analyzed by 2-^ΔΔCt, normalized to 18S ribosomal RNA and expressed as fold change relative to the control group.
Hepatic TG and TC, and plasma ALT and AST levels were measured using commercial kits from Nanjing Jiancheng Bioengineering Institute according to the manufacturer’s instructions. To measure hepatic TG contents, liver tissues (~10 mg) were homogenized in 100 μL 1% TritonX-100 and centrifuged at 3000 rpm for 10 min. Supernatants were collected, and 2 μL samples were incubated with 200 μL reaction buffer at 37°C for 10 min. Hepatic TG or TC levels were read at 510 or 500 nm using a microplate reader (Versamax, Molecular Devices) and normalized using the protein concentration. […] The data were acquired using the kinetic mode with an interval of 30 s and 31 total reads at 340 nm using a microplate reader (Versamax, Molecular Devices).
Tissue specimens were fixed in 10% formalin for 12–24 h before being dehydrated and paraffin-embedded. The sections were stained with H&E. The NAS was calculated as a summary score including individual components of steatosis (0–3), lobular inflammation (0–3), and hepatocyte ballooning (0–2) for each liver section by a blinded liver pathologist, and the results were reviewed by a blinded hepatologist according to a previous protocol. […] At least three discontinuous liver sections were evaluated for each mouse.

CC(C)C[C@@H]1NC(=O)[C@@H]2CN(CCO2)c2cccc3c2c(cn3[Si](C(C)C)(C(C)C)C(C)C)C[C@H](NS(=O)(=O)C(F)(F)F)C(=O)OCCCCNC(=O)[C@H](CC(C)C)NC(=O)[C@@H]2CN(CCO2)c2cccc3c2c(cn3[Si](C(C)C)(C(C)C)C(C)C)C[C@H](NS(=O)(=O)C(F)(F)F)C(=O)OCCCCNC1=O [DC646, N,N'-((1^2R,1^4S,16^2R,16^4S,4R,13R,19R,28R)-13,28-diisobutyl-5,12,15,20,27,30-hexaoxo-2^1,17^1-bis(triisopropylsilyl)-2^1H,17^1H-6,21-dioxa-11,14,26,29-tetraaza-1(4,2),16(2,4)-dimorpholina-2,17(4,3)-diindolacyclotriacontaphane-4,19-diyl)bis(1,1,1-trifluoromethanesulfonamide)]
Concentration in liver ([1]; 1 h): BQL^$
Concentration in serum ([1]; 1 h): BQL^&
Concentration in liver ([1]; 4 h): BQL
Concentration in serum ([1]; 4 h): BQL
Concentration in liver ([1]; 8 h): BQL
Concentration in serum ([1]; 8 h): BQL
Concentration in intestine ([1]; 24 h): BQL^$
Concentration in liver ([1]; 24 h): BQL
Concentration in serum ([1]; 24 h): BQL
tissue level at time at 1 h ([1]; male, mouse, intestine, 1 h, read-out: Concentration in intestine): 6350 ng/g
tissue level at time at 4 h ([1]; male, mouse, intestine, 4 h, read-out: Concentration in intestine): 435 ng/g
tissue level at time at 8 h ([1]; male, mouse, intestine, 8 h, read-out: Concentration in intestine): 72 ng/g
Agonistic activity (SRC2-3 recruitment, compound alone) ([2]; DC646 alone, Fig. 2e): no agonistic activity
Disruption of hFXRα-LBD-SRC2-3 interaction induced by Ivermectin ([2]; DC646 at 11 μmol/L, Ivermectin 5 μmol/L): competitively disrupted
IC50 ([2]; IC50, DC646 combined with CDCA, adding order: DC646 combined with CDCA, Fig. 4b): 12.2 µM
IC50 ([2]; IC50 in recruiting the SRC2-3 peptide in the presence of CDCA, in the presence of CDCA (50 μmol/L), Fig. 2f): 8.86 µM
Effect on CDCA agonism when adding DC646 before CDCA ([2]; adding order: CDCA after DC646): completely blunted the agonism of CDCA
Antagonism when adding DC646 after CDCA ([2]; adding order: DC646 after CDCA): no antagonism
inhibition at 10 µM (PPARγ): 14%
Decrease in ALT and antisteatotic effect (MCD diet-induced MASH; Fxr-null mice): abolished
NAS score, steatosis (MCD diet-induced MASH; WT mice): effectively reduced steatosis
mRNA levels of intestinal FXR target genes Shp and Fgf15 (MCD diet-induced MASH; WT mice): significantly downregulated

From PMC11992618, “Development of cyclopeptide inhibitors specifically disrupting FXR–coactivator interaction in the intestine as a novel therapeutic strategy for MASH” (Life Metabolism, 2025)
